System: SARS-CoV-2
Format: cell-based

## NCC1CCC(C(=O)[O][Ca][O]C(=O)C2CCC(CN)CC2)CC1 (stereo not shown) [Ca-TA, Calcium bis-tranexamate]
  antiviral efficacy against SARS-CoV-2 infections and its emerging variants: desired antiviral efficacy

— patent US20230355558A1 (priority 2022, published 2023)
